{"source": "patent EP4603105A1", "about": "“PHARMACEUTICAL COMPOSITION CONTAINING CYCLIC COMPOUND HAVING SELECTIVE KRAS INHIBITORY EFFECT AGAINST HRAS AND NRAS” (CHUGAI SEIYAKU KABUSHIKI KAISHA, priority 2022, dated 2024)", "key": {"[1]": {"target": "GDP-bound NRAS wild-type protein (Homo sapiens, UniProt P01111)", "sequence (P01111 whole entry)": "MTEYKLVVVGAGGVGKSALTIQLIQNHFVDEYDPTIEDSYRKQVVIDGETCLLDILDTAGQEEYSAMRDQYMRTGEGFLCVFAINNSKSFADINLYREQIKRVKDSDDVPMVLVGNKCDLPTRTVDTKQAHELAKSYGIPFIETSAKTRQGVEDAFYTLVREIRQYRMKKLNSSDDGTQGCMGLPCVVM", "test": "Binding to NRAS by surface plasmon resonance (SPR), KD and KD ratio to KRAS", "procedure,_shortened": "(§1)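 Each cycle, GDP-bound biotin-Avi RAS was captured (~100–300 RU), compound concentrations were injected low to high for 75 s each at 100 µL/min, then the chip was regenerated. Buffer: HBS pH 7.4, 10 mM MgCl2, 10 µM GDP, 1 mM DTT, 4% DMSO; 30°C. KD from a 1:1 binding model.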"}, "[2]": {"test_system": "human lung cancer strain NCI-H441", "assay_type": "cell-based", "procedure,_shortened": "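Signal came from […] measured per well once the reagent was added. Beforehand, cells were cultured at 37°C and 5% carbon dioxide on a compound series serially diluted in dimethyl sulfoxide.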"}, "HRAS wild-type protein": {"target": "HRAS wild-type protein (Homo sapiens, UniProt P01112)", "sequence (P01112 whole entry)": "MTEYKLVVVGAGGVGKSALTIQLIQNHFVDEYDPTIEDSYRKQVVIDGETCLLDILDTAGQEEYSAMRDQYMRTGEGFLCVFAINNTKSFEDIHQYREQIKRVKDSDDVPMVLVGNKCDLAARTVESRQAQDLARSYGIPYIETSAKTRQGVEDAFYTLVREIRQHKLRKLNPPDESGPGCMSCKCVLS", "test": "Binding to HRAS by surface plasmon resonance (SPR), KD and KD ratio to KRAS", "procedure,_shortened": "as §1"}, "[3]": {"settings": "ratio of KD for GDP-bound NRAS wild-type protein to KD for KRAS"}, "[4]": {"settings": "ratio of KD for HRAS wild-type protein to KD for KRAS"}}, "data": [{"compound": "CCC[C@H]1C(=O)N[C@@H]([C@@H](C)CC)C(=O)N(C)CC(=O)N(C)[C@H]2C/C=C\\CCN(C2=O)[C@@H](Cc2ccc(C(F)(F)F)cc2)C(=O)N(C)CC(=O)N[C@@H](CCc2ccc(C(F)(F)F)c(OC)c2)C(=O)N2CCOC[C@H]2C(=O)NC2(CC(C)(C)C2)C(=O)N(C)[C@@H](C(CC)CC)C(=O)N(C)[C@H](C(=O)N(C)C)CC(=O)N1C", "note": "[PP2935]", "values": [{"measurement": "NRAS /KRAS", "setting": "[1]; [3]", "value": "A (a compound having 10 or more and less than 20 is denoted as A)"}, {"measurement": "IC50", "setting": "[2]", "value": 50.5, "unit": "nM"}, {"measurement": "HRAS /KRAS", "setting": "HRAS wild-type protein; [4]", "value": "A (a compound having 10 or more and less than 20 is denoted as A)"}]}, {"compound": "CCC[C@H]1C(=O)N[C@@H]([C@@H](C)CC)C(=O)N(C)CC(=O)N(C)[C@H]2C/C=C\\CCN(C2=O)[C@@H](Cc2ccc(C(F)(F)F)cc2)C(=O)N(C)CC(=O)N[C@@H](CCc2ccc(C(F)(F)F)c(Cl)c2)C(=O)N2C[C@@H](C)C[C@H]2C(=O)NC2(CC(C)(C)C2)C(=O)N(C)[C@@H](C2CCCC2)C(=O)N(C)[C@H](C(=O)N(C)C)CC(=O)N1C", "note": "[PP2270]", "values": [{"measurement": "NRAS /KRAS", "setting": "[1]; ratio of the KD value with respect to GDP-bound NRAS wild-type protein to the KD value with respect to KRAS", "value": "B (a compound having 3 or more and less than 10 is denoted as B)"}, {"measurement": "IC50", "setting": "[2]", "value": 10.4, "unit": "nM"}, {"measurement": "HRAS /KRAS", "setting": "HRAS wild-type protein; ratio of the KD value with respect to HRAS wild-type protein to the KD value with respect to KRAS", "value": "B (a compound having 3 or more and less than 10 is denoted as B)"}]}, {"compound": "CCO[C@@H]1C[C@H]2C(=O)NC3(CCC3)C(=O)N(C)[C@@H](C(CC)CC)C(=O)N(C)[C@H](C)CC(=O)N(C)[C@@H](CC3CCCC3)C(=O)N[C@@H]([C@@H](C)CC)C(=O)N(C)CC(=O)N(C)[C@H]3C/C=C\\CCN(C3=O)[C@@H](Cc3ccc(F)cc3C)C(=O)N(C)CC(=O)N[C@@H](CCc3cc(F)c(C(F)(F)F)c(F)c3)C(=O)N2C1", "note": "[PP1522]", "values": [{"measurement": "NRAS /KRAS", "setting": "[1]; ratio of KD value for GDP-bound NRAS wild-type protein to KD value for KRAS (SPR)", "value": "A (a compound having 10 or more and less than 20 is denoted as A)"}, {"measurement": "IC50", "setting": "[2]", "value": 567, "unit": "nM"}, {"measurement": "HRAS /KRAS", "setting": "HRAS wild-type protein; ratio of KD value for HRAS wild-type protein to KD value for KRAS (SPR)", "value": "A (a compound having 10 or more and less than 20 is denoted as A)"}]}, {"compound": "CCC[C@H]1C(=O)N[C@@H]([C@@H](C)CC)C(=O)N(C2CC2)CC(=O)N(C)[C@H]2C/C=C\\CCN(C2=O)[C@@H](Cc2ccc(C)cc2)C(=O)N(C)CC(=O)N[C@@H](CCc2ccc(C(F)(F)F)c(OC)c2)C(=O)N2C[C@H](OCC)C[C@H]2C(=O)N(C)C2(CCC2)C(=O)N(C)[C@@H](C2CCCC2)C(=O)N(C)[C@H](C(=O)N2CCCCC2)CC(=O)N1C", "note": "[PP3096]", "values": [{"measurement": "NRAS /KRAS", "setting": "[1]; [3]", "value": "A (a compound having 10 or more and less than 20 is denoted as A)"}, {"measurement": "IC50", "setting": "[2]", "value": 35.8, "unit": "nM"}, {"measurement": "HRAS /KRAS", "setting": "HRAS wild-type protein; [4]", "value": "A (a compound having 10 or more and less than 20 is denoted as A)"}]}, {"compound": "CCO[C@@H]1C[C@H]2C(=O)NC3(CCC3)C(=O)N(C)[C@@H](C3CCCC3)C(=O)N(C)[C@H](C(=O)N3CCOCC3)CC(=O)N(C)[C@@H](CC)C(=O)N[C@@H]([C@@H](C)CC)C(=O)N(C)CC(=O)N(C)[C@H]3C[C@@H](C)CCN(C3=O)[C@@H](Cc3ccc(C(F)(F)F)cc3)C(=O)N(C)CC(=O)N[C@@H](CCc3cc(F)c(C(F)(F)F)c(F)c3)C(=O)N2C1", "note": "[PP1027]", "values": [{"measurement": "NRAS /KRAS", "setting": "[1]; [3]", "value": "C (A compound having a KD ratio of 0.1 or more and less than 3 is denoted as C)"}, {"measurement": "IC50", "setting": "[2]", "value": 7.2, "unit": "nM"}, {"measurement": "HRAS /KRAS", "setting": "HRAS wild-type protein; [4]", "value": "B (a compound having 3 or more and less than 10 is denoted as B)"}]}, {"compound": "CCO[C@@H]1C[C@H]2C(=O)NC3(CCC3)C(=O)N(C)[C@@H](C3CCCC3)C(=O)N(C)[C@H](C(=O)N3CCOCC3)CC(=O)N(C)[C@@H](CC(C)C)C(=O)N[C@@H]([C@@H](C)CC)C(=O)N(C)CC(=O)N(C)[C@H]3CC/C=C(/C)CN(C3=O)[C@@H](Cc3ccc(C(F)(F)F)cc3)C(=O)N(C)CC(=O)N[C@@H](CCc3cc(F)c(C(F)(F)F)c(F)c3)C(=O)N2C1", "note": "[PP1333]", "values": [{"measurement": "NRAS /KRAS", "setting": "[1]; ratio of KD with respect to GDP-bound NRAS wild-type protein to KD with respect to KRAS", "value": "C (A compound having a KD ratio of 0.1 or more and less than 3 is denoted as C)"}, {"measurement": "IC50", "setting": "[2]", "value": 980, "unit": "nM"}, {"measurement": "HRAS /KRAS", "setting": "HRAS wild-type protein; ratio of KD with respect to HRAS wild-type protein to KD with respect to KRAS", "value": "B (a compound having 3 or more and less than 10 is denoted as B)"}]}]}
